Data reported in the NIST ThermoML archive (doi:10.1016/j.jct.2014.12.022).
± gives the expanded uncertainty stated by the source.

Assay: molar heat capacity at constant pressure; xn = mol fraction of the nth substance listed
Details: 100 kPa, Liquid, Small sample (50 mg) DSC

CN1CCCC1=O [N-methylpyrrolidone] + c1ccccc1
molar heat capacity at constant pressure [J/K/mol]
Details	293.15 K	298.15 K	303.15 K
x1 = 0.0787	137.73 ± 2.8	139.51 ± 2.8	140.9 ± 2.8
x1 = 0.1156	139.63 ± 2.8	141.42 ± 2.8	142.83 ± 2.9
x1 = 0.168	142.27 ± 2.9	144.04 ± 2.9	145.46 ± 2.9
x1 = 0.1983	143.75 ± 2.9	145.51 ± 2.9	146.92 ± 2.9
x1 = 0.2249	145.03 ± 2.9	146.77 ± 2.9	148.18 ± 3
x1 = 0.2634	146.83 ± 2.9	148.55 ± 3	149.94 ± 3
x1 = 0.3065	148.78 ± 3	150.46 ± 3	151.83 ± 3
x1 = 0.3325	149.91 ± 3	151.58 ± 3	152.93 ± 3.1
x1 = 0.3617	151.15 ± 3	152.8 ± 3.1	154.13 ± 3.1
x1 = 0.4106	153.13 ± 3.1	154.74 ± 3.1	156.04 ± 3.1
x1 = 0.4367	154.13 ± 3.1	155.73 ± 3.1	157.02 ± 3.1
x1 = 0.4635	155.13 ± 3.1	156.71 ± 3.1	157.98 ± 3.2
x1 = 0.5008	156.45 ± 3.1	158.01 ± 3.2	159.26 ± 3.2
x1 = 0.5598	158.37 ± 3.2	159.91 ± 3.2	161.13 ± 3.2
x1 = 0.5952	159.42 ± 3.2	160.95 ± 3.2	162.15 ± 3.2
x1 = 0.6245	160.24 ± 3.2	161.75 ± 3.2	162.94 ± 3.3
x1 = 0.6616	161.18 ± 3.2	162.69 ± 3.2	163.85 ± 3.3
x1 = 0.7099	162.28 ± 3.2	163.76 ± 3.3	164.9 ± 3.3
x1 = 0.7494	163.06 ± 3.3	164.51 ± 3.3	165.62 ± 3.3
x1 = 0.7748	163.51 ± 3.3	164.93 ± 3.3	166.02 ± 3.3
x1 = 0.8011	163.92 ± 3.3	165.31 ± 3.3	166.38 ± 3.3
x1 = 0.8319	164.35 ± 3.3	165.68 ± 3.3	166.72 ± 3.3
x1 = 0.8767	164.84 ± 3.3	166.08 ± 3.3	167.06 ± 3.3
x1 = 0.9152	165.15 ± 3.3	166.28 ± 3.3	167.2 ± 3.3
